In patent publication US9708314B2, “Heterocyclic amide compound” (NISSAN CHEMICAL INDUSTRIES, LTD., priority 2013, dated 2017):

Key:
Assay type in all cases: in vivo
Leptochloa chinensis = test: Test Example 3: herbicidal effect by application to foliage (Wagner pot, water depth 0.1-0.5 cm); conditions: Nineteenth Table; application to foliage; application herbicide amount 320 g/ha
How it was run: (§1)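 Scores (0–5) reflect herbicidal ratio three weeks after a foliar spray: 0 is 5% or less, 5 is 90% or more. Plants had grown 14 days in alluvial soil pots in a 25–30 °C greenhouse before treatment with water-diluted emulsion at a set g/ha.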

Cyperus difformis = test: as above; conditions: Nineteenth Table; application to foliage; application herbicide amount 320 g/ha
How it was run: as §1

[1] = test system: Echinochloa crus-galli var. crus-galli; test: as above; conditions: Nineteenth Table; application to foliage; application herbicide amount 320 g/ha
How it was run: as §1

Zea mays = test: Test Example 4: effect on crop by application to foliage (diluvial soil, plastic box); conditions: application to foliage, application herbicide amount 320 g/ha
How it was run: (§2)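 Emulsion-formulated compound, diluted to a predetermined g/ha dose, applied by small sprayer to leaves and stems of 14-day-old seedlings grown in sterilized diluvial soil. Effect rated on 0–5 herbicidal-ratio scale three weeks on.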

Glycine max = test: as above; conditions: application to foliage, application herbicide amount 320 g/ha
How it was run: as §2

Brassica campestris L. = test: as above; conditions: application to foliage, application herbicide amount 320 g/ha
How it was run: as §2

[2] = test system: directly sowed Oryza sativa; test: as above; conditions: application to foliage, application herbicide amount 320 g/ha
How it was run: as §2

[3] = test system: Beta vulgaris ssp. vulgaris; test: as above; conditions: application to foliage, application herbicide amount 320 g/ha
How it was run: as §2

Triticum aestivum = test: as above; conditions: application to foliage, application herbicide amount 320 g/ha
How it was run: as §2

[4] = test system: directly sowed Oryza sativa; test: Test Example 3: effect on crop by application to foliage (Wagner pot, water depth 0.1-0.5 cm); conditions: Nineteenth Table; application to foliage; application herbicide amount 320 g/ha
How it was run: as §1

Chenopodium album = test: Test Example 4: herbicidal effect by application to foliage (diluvial soil, plastic box); conditions: application to foliage, application herbicide amount 320 g/ha
How it was run: as §2

Lolium multiflorum Lam. = test: as above; conditions: application to foliage, application herbicide amount 320 g/ha
How it was run: as §2

[5] = test system: Echinochloa crus-galli var. crus-galli; test: as above; conditions: application to foliage, application herbicide amount 320 g/ha
How it was run: as §2

Digitaria ciliaris = test: as above; conditions: application to foliage, application herbicide amount 320 g/ha
How it was run: as §2

Apera spica-venti. = test: as above; conditions: application to foliage, application herbicide amount 320 g/ha
How it was run: as §2

Veronica persica = test: as above; conditions: application to foliage, application herbicide amount 320 g/ha
How it was run: as §2

Stellaria media = test: as above; conditions: application to foliage, application herbicide amount 320 g/ha
How it was run: as §2

Galium spurium = test: as above; conditions: application to foliage, application herbicide amount 320 g/ha
How it was run: as §2

Abutilon theophrasti = test: as above; conditions: application to foliage, application herbicide amount 320 g/ha
How it was run: as §2

Setaria viridis = test: as above; conditions: application to foliage, application herbicide amount 320 g/ha
How it was run: as §2

Avena fatua = test: as above; conditions: application to foliage, application herbicide amount 320 g/ha
How it was run: as §2

Amaranthus retroflexus = test: as above; conditions: application to foliage, application herbicide amount 320 g/ha
How it was run: as §2

Alopecurus myosuroides = test: as above; conditions: application to foliage, application herbicide amount 320 g/ha
How it was run: as §2

| Compound | D (herbicidal effect grade) (Leptochloa chinensis) | E (herbicidal effect grade) (Cyperus difformis) | H (herbicidal effect grade) [1] | c: effect on crop, Zea mays (Zea mays) | d: effect on crop, Glycine max (Glycine max) | g: effect on crop, Brassica campestris L. (Brassica campestris L.) | b: effect on crop, directly sowed Oryza sativa [2] | f: effect on crop, Beta vulgaris ssp. vulgaris [3] | e: effect on crop, Triticum aestivum (Triticum aestivum) | b (effect on crop grade) [4] | O: herbicidal effect on Chenopodium album (Chenopodium album) | K: herbicidal effect on Lolium multiflorum Lam. (Lolium multiflorum Lam.) | H: herbicidal effect on Echinochloa crus-galli var. crus-galli [5] | F: herbicidal effect on Digitaria ciliaris (Digitaria ciliaris) | L: herbicidal effect on Apera spica-venti. (Apera spica-venti.) | R: herbicidal effect on Veronica persica (Veronica persica) | P: herbicidal effect on Stellaria media (Stellaria media) | Q: herbicidal effect on Galium spurium (Galium spurium) | M: herbicidal effect on Abutilon theophrasti (Abutilon theophrasti) | G: herbicidal effect on Setaria viridis (Setaria viridis) | further results |
| --- | --- | --- | --- | --- | --- | --- | --- | --- | --- | --- | --- | --- | --- | --- | --- | --- | --- | --- | --- | --- | --- |
| Cn1nnnc1NC(=O)c1ccc(C(F)(F)F)n2c(C3CCCC3)nnc12 [2-021] | 5 (Herbicidal ratio of 90% or more (almost completely withered)) | 5 (Herbicidal ratio of 90% or more (almost completely withered)) | 5 (Herbicidal ratio of 90% or more (almost completely withered)) | 0 (Herbicidal ratio of 5% or less (almost no effect)) | 4 (Herbicidal ratio of 70% or more and less than 90%) | 4 (Herbicidal ratio of 70% or more and less than 90%) | 4 (Herbicidal ratio of 70% or more and less than 90%) | 5 (Herbicidal ratio of 90% or more (almost completely withered)) | 3 (Herbicidal ratio of 40% or more and less than 70%) | 5 (Herbicidal ratio of 90% or more (almost completely withered)) | 5 (Herbicidal ratio of 90% or more (almost completely withered)) | 3 (Herbicidal ratio of 40% or more and less than 70%) | 5 (Herbicidal ratio of 90% or more (almost completely withered)) | 5 (Herbicidal ratio of 90% or more (almost completely withered)) | 4 (Herbicidal ratio of 70% or more and less than 90%) | 5 (Herbicidal ratio of 90% or more (almost completely withered)) | 5 (Herbicidal ratio of 90% or more (almost completely withered)) | 4 (Herbicidal ratio of 70% or more and less than 90%) | 5 (Herbicidal ratio of 90% or more (almost completely withered)) | 5 (Herbicidal ratio of 90% or more (almost completely withered)) | I: herbicidal effect on Avena fatua (Avena fatua): 3 (Herbicidal ratio of 40% or more and less than 70%); N: herbicidal effect on Amaranthus retroflexus (Amaranthus retroflexus): 5 (Herbicidal ratio of 90% or more (almost completely withered)); J: herbicidal effect on Alopecurus myosuroides (Alopecurus myosuroides): 3 (Herbicidal ratio of 40% or more and less than 70%) |
| Cn1nnnc1NC(=O)c1ccc(C(F)(F)F)n2c(C3CCOC3)nnc12 (centres unmarked) [2-022] | 5 (Herbicidal ratio of 90% or more (almost completely withered)) | 5 (Herbicidal ratio of 90% or more (almost completely withered)) | 5 (Herbicidal ratio of 90% or more (almost completely withered)) | 1 (Herbicidal ratio of 5% or more and less than 20%) | 5 (Herbicidal ratio of 90% or more (almost completely withered)) | 5 (Herbicidal ratio of 90% or more (almost completely withered)) | 5 (Herbicidal ratio of 90% or more (almost completely withered)) | 5 (Herbicidal ratio of 90% or more (almost completely withered)) | 3 (Herbicidal ratio of 40% or more and less than 70%) | 5 (Herbicidal ratio of 90% or more (almost completely withered)) | 5 (Herbicidal ratio of 90% or more (almost completely withered)) | 3 (Herbicidal ratio of 40% or more and less than 70%) | 5 (Herbicidal ratio of 90% or more (almost completely withered)) | 4 (Herbicidal ratio of 70% or more and less than 90%) | 5 (Herbicidal ratio of 90% or more (almost completely withered)) | 5 (Herbicidal ratio of 90% or more (almost completely withered)) | 5 (Herbicidal ratio of 90% or more (almost completely withered)) | 4 (Herbicidal ratio of 70% or more and less than 90%) | 5 (Herbicidal ratio of 90% or more (almost completely withered)) | 5 (Herbicidal ratio of 90% or more (almost completely withered)) | I: herbicidal effect on Avena fatua (Avena fatua): 4 (Herbicidal ratio of 70% or more and less than 90%); N: herbicidal effect on Amaranthus retroflexus (Amaranthus retroflexus): 5 (Herbicidal ratio of 90% or more (almost completely withered)); J: herbicidal effect on Alopecurus myosuroides (Alopecurus myosuroides): 3 (Herbicidal ratio of 40% or more and less than 70%) |
| CCSc1nnc2c(C(=O)Nc3nnnn3C)ccc(C(F)(F)F)n12 [2-024] | 5 (Herbicidal ratio of 90% or more (almost completely withered)) | 5 (Herbicidal ratio of 90% or more (almost completely withered)) | 5 (Herbicidal ratio of 90% or more (almost completely withered)) | 5 (Herbicidal ratio of 90% or more (almost completely withered)) | 5 (Herbicidal ratio of 90% or more (almost completely withered)) | 5 (Herbicidal ratio of 90% or more (almost completely withered)) | 5 (Herbicidal ratio of 90% or more (almost completely withered)) | 5 (Herbicidal ratio of 90% or more (almost completely withered)) | 4 (Herbicidal ratio of 70% or more and less than 90%) | 5 (Herbicidal ratio of 90% or more (almost completely withered)) | 5 (Herbicidal ratio of 90% or more (almost completely withered)) | 4 (Herbicidal ratio of 70% or more and less than 90%) | 5 (Herbicidal ratio of 90% or more (almost completely withered)) | 5 (Herbicidal ratio of 90% or more (almost completely withered)) | 5 (Herbicidal ratio of 90% or more (almost completely withered)) | 5 (Herbicidal ratio of 90% or more (almost completely withered)) | 5 (Herbicidal ratio of 90% or more (almost completely withered)) | 4 (Herbicidal ratio of 70% or more and less than 90%) | 5 (Herbicidal ratio of 90% or more (almost completely withered)) | 5 (Herbicidal ratio of 90% or more (almost completely withered)) | I: herbicidal effect on Avena fatua (Avena fatua): 4 (Herbicidal ratio of 70% or more and less than 90%); N: herbicidal effect on Amaranthus retroflexus (Amaranthus retroflexus): 5 (Herbicidal ratio of 90% or more (almost completely withered)); J: herbicidal effect on Alopecurus myosuroides (Alopecurus myosuroides): 3 (Herbicidal ratio of 40% or more and less than 70%) |
| CC(C)Sc1nnc2c(C(=O)Nc3nnnn3C)ccc(C(F)(F)F)n12 [2-025] | 5 (Herbicidal ratio of 90% or more (almost completely withered)) | 5 (Herbicidal ratio of 90% or more (almost completely withered)) | 5 (Herbicidal ratio of 90% or more (almost completely withered)) | 1 (Herbicidal ratio of 5% or more and less than 20%) | 4 (Herbicidal ratio of 70% or more and less than 90%) | 4 (Herbicidal ratio of 70% or more and less than 90%) | 5 (Herbicidal ratio of 90% or more (almost completely withered)) | 5 (Herbicidal ratio of 90% or more (almost completely withered)) | 3 (Herbicidal ratio of 40% or more and less than 70%) | 5 (Herbicidal ratio of 90% or more (almost completely withered)) | 5 (Herbicidal ratio of 90% or more (almost completely withered)) | 3 (Herbicidal ratio of 40% or more and less than 70%) | 5 (Herbicidal ratio of 90% or more (almost completely withered)) | 5 (Herbicidal ratio of 90% or more (almost completely withered)) | 4 (Herbicidal ratio of 70% or more and less than 90%) | 5 (Herbicidal ratio of 90% or more (almost completely withered)) | 5 (Herbicidal ratio of 90% or more (almost completely withered)) | 4 (Herbicidal ratio of 70% or more and less than 90%) | 5 (Herbicidal ratio of 90% or more (almost completely withered)) | 5 (Herbicidal ratio of 90% or more (almost completely withered)) | I: herbicidal effect on Avena fatua (Avena fatua): 4 (Herbicidal ratio of 70% or more and less than 90%); N: herbicidal effect on Amaranthus retroflexus (Amaranthus retroflexus): 5 (Herbicidal ratio of 90% or more (almost completely withered)); J: herbicidal effect on Alopecurus myosuroides (Alopecurus myosuroides): 3 (Herbicidal ratio of 40% or more and less than 70%) |
